Experiments:
MCF7 = assay: NCI 60 cell panel
RXF 393 = assay: NCI 60 cell panel
AT84 cells = assay: EdU cell growth assay; settings: AT84 cells
Method: EdU cell growth assay. Click-iT EdU Alexa Fluor high-throughput imaging (HCS) assay for cell proliferation. HCS assays were performed on AT84 mouse squamous carcinoma cell line (ATCC) following the manufacturer's instruction (Molecular Probes, Invitrogen). […] All samples were in triplicate.

UO-31 = assay: NCI 60 cell panel
SN12C = assay: NCI 60 cell panel
HL-60(TB) = assay: NCI 60 cell panel
SF-268 = assay: NCI 60 cell panel
NCI-H226 = assay: NCI 60 cell panel
786-0 = assay: NCI 60 cell panel
[1] = test system: 60 cell panel of human carcinoma cell lines; assay: NCI 60 cell panel, summary in text; type: cell-based
NCI-H522 = assay: NCI 60 cell panel
SCC4 cells = assay: MTS cell proliferation assay; type: cell-based, human; settings: vitamin D resistant SCC4 cells, Figures 7c, 8 and 9
From the text: Dose-dependent effects of compounds on cell cycle progression was monitored using a CellTiter 96 Aqueous Non-Radioactive Cell Proliferation Assay Kit (Promega). The assay composed of solutions of a novel tetrazolium compound (MTS) and an electron coupling reagent (phenazine methosulfate; PMS). MTS is reduced by metabolically active cells into a soluble formazan product that absorbs at 490nm. The quantity of formazan product absorbing at 490nm is directly proportional to the number of living cells.

HT29 = assay: NCI 60 cell panel
SW-620 = assay: NCI 60 cell panel
OVCAR-4 = assay: NCI 60 cell panel
SK-MEL-2 = assay: NCI 60 cell panel
A549/A/TCC = assay: NCI 60 cell panel
SNB-19 = assay: NCI 60 cell panel
HOP-92 = assay: NCI 60 cell panel
SR = assay: NCI 60 cell panel
PC-3 = assay: NCI 60 cell panel
CCRF-CEM = assay: NCI 60 cell panel
COLO 205 = assay: NCI 60 cell panel
MDA-MB-231/ATCC = assay: NCI 60 cell panel
MALME-3M = assay: NCI 60 cell panel
HCC-2998 = assay: NCI 60 cell panel
NCI-H322M = assay: NCI 60 cell panel
UACC-62 = assay: NCI 60 cell panel
HCT-15 = assay: NCI 60 cell panel

CCC(CC)(c1ccc(OCC(=O)NO)c(C)c1)c1ccc(OCC(O)C(C)(C)C)c(C)c1 (racemic) [JF-B01, N-Hydroxy-2-(4-(3-(4-(2-hydroxy-3,3-dimethylbutoxy)-3-methylphenyl)pentan-3-yl)-2-methylphenoxy)acetamide]
TGI (MCF7; Breast Cancer, MCF7): 2.70E-6 | GI50 (MCF7; Homo sapiens, MCF7): 333 nM | CC50 (MCF7; Homo sapiens, MCF7, read-out: LC50): 12.8 µM | GI50 (RXF 393; Homo sapiens, RXF 393): 5.34 µM | CC50 (RXF 393; Homo sapiens, RXF 393, read-out: LC50): 47.5 µM | TGI (RXF 393; Renal Cancer, RXF 393): 1.91E-5 | antiproliferative potency, fold less potent than 1,25D (AT84 cells): 10 fold | GI50 (UO-31; Homo sapiens, UO-31): 1920 nM | CC50 (UO-31; Homo sapiens, UO-31, read-out: LC50): 26.2 µM | TGI (UO-31; Renal Cancer, UO-31): 6.95E-6 | GI50 (SN12C; Homo sapiens): 3.87 µM | CC50 (SN12C; Homo sapiens, read-out: LC50): 40.3 µM | TGI (SN12C; Renal Cancer): 1.59E-5 | GI50 (HL-60(TB); Homo sapiens, HL-60): 944 nM | CC50 (HL-60(TB); Homo sapiens, HL-60, read-out: LC50): 8.8 µM | TGI (HL-60(TB); Leukemia, HL-60(TB)): 2.93E-6 | TGI (SF-268; CNS Cancer, SF-268): 1.06E-5 | GI50 (SF-268; Homo sapiens, SF-268): 2260 nM | CC50 (SF-268; Homo sapiens, SF-268, read-out: LC50): 34.6 µM | GI50 (NCI-H226; Homo sapiens, NCI-H226): 1980 nM | CC50 (NCI-H226; Homo sapiens, NCI-H226, read-out: LC50): 33 µM | TGI (NCI-H226; Non-Small Cell Lung Cancer, NCI-H226): 1.07E-5 | GI50 (786-0; Homo sapiens, 786-0): 11.3 µM | CC50 (786-0; Homo sapiens, 786-0, read-out: LC50): 51.3 µM | TGI (786-0; Renal Cancer, 786-0): 2.41E-5 | antiproliferative activity ([1]; all cell lines of the panel): antiproliferative activity in all cell lines | full growth inhibition ([1]; melanoma cell lines, 8 out of 9 cell lines): ≤ 7 µM | GI50 (NCI-H522; Homo sapiens, NCI-H522): 196 nM | CC50 (NCI-H522; Homo sapiens, NCI-H522, read-out: LC50): 19.5 µM | TGI (NCI-H522; Non-Small Cell Lung Cancer, NCI-H522): 5.18E-7 | antiproliferative potency (SCC4 cells): low micromolar potency | TGI (HT29; Colon Cancer, HT29): 1.00E-5 | GI50 (HT29; Homo sapiens, HT-29): 1930 nM | CC50 (HT29; Homo sapiens, HT-29, read-out: LC50): 31.7 µM | TGI (SW-620; Colon Cancer, SW-620): 1.25E-5 | GI50 (SW-620; Homo sapiens, SW-620): 2300 nM | CC50 (SW-620; Homo sapiens, SW-620, read-out: LC50): 35.4 µM | GI50 (OVCAR-4; Homo sapiens, OVCAR-4): 1880 nM | CC50 (OVCAR-4; Homo sapiens, OVCAR-4, read-out: LC50): 32 µM | TGI (OVCAR-4; Ovarian Cancer, OVCAR-4): 9.44E-6 | GI50 (SK-MEL-2; Homo sapiens, SK-MEL-2): 1900 nM | CC50 (SK-MEL-2; Homo sapiens, SK-MEL-2, read-out: LC50): 30 µM | TGI (SK-MEL-2; Melanoma, SK-MEL-2): 5.24E-6 | GI50 (A549/A/TCC; Homo sapiens, A549): 3.62 µM | CC50 (A549/A/TCC; Homo sapiens, A549, read-out: LC50): 40.8 µM | TGI (A549/A/TCC; Non-Small Cell Lung Cancer, A549/A/TCC): 1.43E-5 | TGI (SNB-19; CNS Cancer, SNB-19): 1.12E-5 | GI50 (SNB-19; Homo sapiens, SNB-19): 2410 nM | CC50 (SNB-19; Homo sapiens, SNB-19, read-out: LC50): 33.5 µM | GI50 (HOP-92; Homo sapiens, HOP-92): 3.08 µM | CC50 (HOP-92; Homo sapiens, HOP-92, read-out: LC50): 49.2 µM | TGI (HOP-92; Non-Small Cell Lung Cancer, HOP-92): 1.53E-5 | GI50 (SR; Homo sapiens): 1210 nM | CC50 (SR; Homo sapiens, read-out: LC50): 24.9 µM | TGI (SR; Leukemia): 3.91E-6 | GI50 (PC-3; Homo sapiens, PC-3): 3.04 µM | CC50 (PC-3; Homo sapiens, PC-3, read-out: LC50): 41.8 µM | TGI (PC-3; Prostate Cancer, PC-3): 1.23E-5 | GI50 (CCRF-CEM; Homo sapiens): 576 nM | CC50 (CCRF-CEM; Homo sapiens, read-out: LC50): 42.2 µM | TGI (CCRF-CEM; Leukemia): 4.80E-6 | TGI (COLO 205; Colon Cancer, COLO 205): 5.94E-6 | GI50 (COLO 205; Homo sapiens, COLO 205): 2330 nM | CC50 (COLO 205; Homo sapiens, COLO 205, read-out: LC50): 20.3 µM | TGI (MDA-MB-231/ATCC; Breast Cancer, MDA-MB-231/ATCC): 8.45E-6 | GI50 (MDA-MB-231/ATCC; Homo sapiens, MDA-MB-231): 2180 nM | CC50 (MDA-MB-231/ATCC; Homo sapiens, MDA-MB-231, read-out: LC50): 31.6 µM | GI50 (MALME-3M; Homo sapiens, Malme-3M): 2330 nM | CC50 (MALME-3M; Homo sapiens, Malme-3M, read-out: LC50): 35.7 µM | TGI (MALME-3M; Melanoma, MALME-3M): 1.07E-5 | TGI (HCC-2998; Colon Cancer, HCC-2998): 1.55E-5 | GI50 (HCC-2998; Homo sapiens, HCC 2998): 4.23 µM | CC50 (HCC-2998; Homo sapiens, HCC 2998, read-out: LC50): 41.2 µM | GI50 (NCI-H322M; Homo sapiens): 2860 nM | CC50 (NCI-H322M; Homo sapiens, read-out: LC50): 33 µM | TGI (NCI-H322M; Non-Small Cell Lung Cancer): 1.08E-5 | GI50 (UACC-62; Homo sapiens, UACC-62): 1680 nM | CC50 (UACC-62; Homo sapiens, UACC-62, read-out: LC50): 11.5 µM | TGI (UACC-62; Melanoma, UACC-62): 4.22E-6 | TGI (HCT-15; Colon Cancer, HCT-15): 1.12E-5 | GI50 (HCT-15; Homo sapiens, HCT-15): 1940 nM | CC50 (HCT-15; Homo sapiens, HCT-15, read-out: LC50): 33.6 µM

Source: patent EP2794556B1, “BIS-(ARYL/HETEROARYL)-METHYLENE COMPOUNDS, PHARMACEUTICAL COMPOSITIONS CONTAINING SAME AND THEIR USE FOR TREATING CANCER” (Gleason, James L., priority 2011, dated 2013)
